Source: patent US20040138462A1, “Aminoalcohol derivatives” (priority 2001, published 2004)

How the values were obtained:
[1] = test system: increase in intravesical pressure induced by carbachol in anesthetized dog; experiment: Effect on the increase in intravesical pressure induced by carbachol in anesthetized dog; format: in vivo, Beagle dogs; conditions: intraduodenal administration
Protocol: Effect on the increase in intravesical pressure induced by carbachol in anesthetized dog
Female Beagle dogs weighing 8.0-15.0 kg were fasted for 24 hours and maintained under halothane anesthesia. A 12F Foley catheter was lubricated with water soluble jelly, inserted into the urethral orifice and advanced approximately 10 cm until the balloon tip was placed well inside the bladder. The balloon was then inflated with 5 ml of room air and catheter slowly withdrawn just part the first resistance that is felt at the bladder neck. Urine was completely drained out through the catheter, and 30 ml of biological saline was infused. The catheter was connected to pressure transducer, and intravesical pressure was continuously recorded. Intraduodenal administration of test compound (I) inhibited carbachol (1.8 μg/kg)-induced increase in intravesical pressure (IVP).

SMILES | melting point [°C] | % inhibition of carbachol-induced increase in IVP ([1]; 0.32 mg/kg, female Beagle dogs under halothane anesthesia, carbachol 1.8 μg/kg) [%] | carbachol (1.8 μg/kg)-induced increase in intravesical pressure (IVP) ([1]; anesthetized female Beagle dogs)
CCOC(=O)COc1ccc(S(=O)(=O)c2ccc(CCNC[C@H](O)c3cccc(Cl)c3)cc2)cc1.Cl | 198 to 200 |  | 
O=S(=O)(c1ccccc1)c1ccc(C[C@@H](CO)NC[C@H](O)COc2ccccc2)cc1 [Test Compound (1), (2S)-2-[((2S)-2-Hydroxy-3-phenoxypropyl)amino]-3-[4-(phenylsulfonyl)phenyl]-1-propanol] |  | 30 | inhibited
